Laboratory results taken from ChEMBL document CHEMBL1147321, “Terpenoids from the North Adriatic Sponge Spongia officinalis” (J Nat Prod, 1989).
Values after ≈ are worked out from the molar mass of the structure shown.

Assay: Toxicity against Artemia salina by lethality assay
Type: organism-based
Settings: in vivo, read-out: LD50 (the source's name)

| Compound | LC50 [µg/mL] |
| --- | --- |
| C/C(=C/C(=O)/C=C(\C)CCCc1ccoc1)CCCc1ccoc1 | 0.09 (≈ 0.276 µM) |
| CC(=O)O[C@H]1C[C@@H]2[C@@]3(C)CCCC(C)(C)[C@@H]3CC[C@@]2(C)[C@@H]2CCc3cocc3[C@@]12C | 180 (≈ 436 µM) |
| CC(=O)O[C@H]1C[C@H]2[C@]3(C)CCCC(C)(C)[C@H]3CC[C@]2(C)[C@H]2CC=C3CO[C@H](O)[C@H]3[C@]12C | 200 (≈ 464 µM) |
| C/C(=C/C(=O)/C=C(/C)CCCc1ccoc1)CCCc1ccoc1 | 0.45 (≈ 1.38 µM) |
| C/C(=C\C(=O)C/C(C)=C/CCc1ccoc1)CCCc1ccoc1 [FUROSPONGIN 2] | 0.12 (≈ 0.368 µM) |
| CC(=O)O[C@@H]1OCC2=CC[C@H]3[C@]4(C)CC[C@H]5C(C)(C)CCC[C@]5(C)[C@H]4C[C@H](OC(C)=O)[C@]3(C)[C@H]21 [DEOXOSCALARIN ACETATE] | 190 |
| C/C(=C\C(=O)/C=C(\C)CCCc1ccoc1)CCCc1ccoc1 | 1.6 (≈ 4.9 µM) |
